For two compounds, EC50 and Ki results are on record in US8637526B2, “Pyrazolopyrimidine JAK inhibitor compounds and methods” (Genentech, Inc., priority 2008, dated 2014).

The term EC50 denotes the concentration that produces a half-maximal response. Broadly, the Ki is the equilibrium dissociation constant of an inhibitor or competing ligand from its target.

Assay [1] concerns Set-2 cells, which express the JAK2V617F mutant protein. In words: STAT5 phosphorylation in Set-2 cells (JAK2-dependent signaling, MSD). The format is cell-based. The conditions noted are these: Homo sapiens, SET-2, 1 h, read-out: pSTAT5 SET2 EC50. The method, then: The activities of compounds were determined in cell-based assays that are designed to measure JAK2-dependent signaling or proliferation. Compounds were serially diluted in DMSO and incubated with Set-2 cells (German Collection of Microorganisms and Cell Cultures (DSMZ); Braunschweig, Germany), which express the JAK2V617F mutant protein, in 96-well microtiter plates for 1 hr at 37° C. in RPMI medium at a final cell density of 100,000 cells per well and a final DMSO concentration of 0.57%. Compound-mediated effects on STATS phosphorylation were then measured in the lysates of incubated cells using the Meso Scale Discovery (MSD) technology (Gaithersburg, Md.) according to the manufacturer's protocol and EC50 values were determined. Alternatively, serially diluted compounds were added to 384-well microtiter plates in RPMI medium with 10% fetal bovine serum (Invitrogen Corp.; Carlsbad, Calif.) at a final cell density of 2500 cells per well and a final DMSO concentration of 0.3% and incubated at 37° C. for 72 hours. Cell viability was then determined using the CellTiter-Glo® Luminescent Cell Viability Assay according to the manufacturer's protocol (Promega; Madison, Wis.) and EC50 values were determined.

The test system of assay [2] is TF-1 cells. The assay is described as follows: IL-6-stimulated STAT3 phosphorylation in TF-1 cells (JAK1-dependent signaling, MSD). The assay is classed as cell-based. The settings on record: Homo sapiens, TF-1, 0.5 h, read-out: IL6-pSTAT3 TF1 EC50. The method, then:
(§1) The activities of compounds were determined in cell-based assays that are designed to measure JAK1 or JAK2-dependent signaling. Compounds were serially diluted in DMSO and incubated with TF-1 cells (American Type Culture Collection (ATCC); Manassas, Va.) in 384-well microtiter plates in OptiMEM medium without phenol red, 1% Charcoal/Dextran stripped FBS, 0.1 mM NEAA, 1 mM sodium pyruvate (Invitrogen Corp.; Carlsbad, Calif.) at a final cell density of 100,000 cells per well and a final DMSO concentration of 0.2%. Human recombinant IL-6 (R&D systems; Minneapolis, Minn.) or EPO (Invitrogen Corp.; Carlsbad, Calif.) was then added at a final concentration of 30 ng/mL or 10 Units/mL, respectively, to the microtiter plates containing the TF-1 cells and compound and the plates were incubated for 30 min at 37° C. Compound-mediated effects on STAT3 or STATS phosphorylation were then measured in the lysates of cells incubated in the presence of IL-6 or EPO, respectively, using the Meso Scale Discovery (MSD) technology (Gaithersburg, Md.) according to the manufacturer's protocol and EC50 values were determined.

A further assay relates to NK92 cells. In words: IL-12-stimulated STAT4 phosphorylation in NK92 cells (TYK2-dependent signaling, MSD). The conditions noted are these: NK92, 1 h, read-out: IL12-pSTAT4 NK92 EC50. The format is cell-based. The procedure: The activities of compounds were determined in cell-based assays that are designed to measure TYK2-dependent signaling. Compounds were serially diluted in DMSO and incubated with NK92 cells (American Type Culture Collection (ATCC); Manassas, Va.) in 96-well microtiter plates in RPMI medium at a final cell density of 100,000 cells per well and a final DMSO concentration of 0.57%. Human recombinant IL-12 (R&D systems; Minneapolis, Minn.) was then added at a final concentration of 10 ng/mL to the microtiter plates containing the NK92 cells and compound and the plates were incubated for 1 hr at 37° C. Compound-mediated effects on STAT4 phosphorylation were then measured in the lysates of incubated cells using the Meso Scale Discovery (MSD) technology (Gaithersburg, Md.) according to the manufacturer's protocol and EC50 values were determined

Another assay deals with human JAK1 kinase domain (Homo sapiens (Human), UniProt P23458). In words: JAK1 Inhibition Assay Protocol (Caliper LabChip peptide phosphorylation). The conditions noted are these: enzymatic activity, 25 uM ATP. The format is biochemical. The text has this:
The catalytically active kinase domain of human JAK1, JAK2, JAK3 or TYK2 was purified from extracts of SF9 insect cells infected with a recombinant baculovirus expression vector encoding the human JAK1, JAK2, JAK3 or TYK2 kinase domains (JAK1 amino acid residues N852-D1154 according to the numbering of GenBank sequence accession number P23458, JAK2 amino acid residues D812-G1132 according to the numbering of GenBank sequence accession number NP_004963.1; JAK3 amino acid residues S783-S1124 according to the numbering of GenBank sequence accession number P52333, and TYK2 amino acid residues N873-C1187 according to the numbering of GenBank sequence accession number P29597). The activity of the JAK1, JAK2, JAK3 or TYK2 kinase domains can be measured by a number of direct and indirect methods, including quantification of phosphorylation of peptide substrates derived from the human JAK3 protein (Saltzman et al., Biochem. Biophys. Res. Commun. 246:627-633 (2004)). The activity of the JAK1, JAK2, JAK3 or TYK2 kinase domains was measured in vitro by monitoring phosphorylation of JAK3 derived peptides using the Caliper LabChip technology.
(§2) The activity of the isolated JAK1 or TYK2 kinase domain was measured by monitoring phosphorylation of a peptide derived from JAK3 ([…] fluorescently labeled on the N-terminus with 5-carboxyfluorescein using the Caliper LabChip technology (Caliper Life Sciences, Hopkinton, Mass.). […] Reactions were incubated at 22° C. in 384-well polypropylene microtiter plates for 30 minutes and then stopped by addition of 25 uL of an EDTA containing solution (100 mM Hepes pH 7.2, 0.015% Brij-35, 150 mM EDTA), resulting in a final EDTA concentration of 50 mM. After termination of the kinase reaction, the proportion of phosphorylated product was determined as a fraction of total peptide substrate using the Caliper LabChip 3000 according to the manufacturer's specifications. Ki values were then determined using the Morrison tight binding model (Morrison, J. F., Biochim. Biophys. Acta. 185:269-296 (1969); William, J. W. and Morrison, J. F., Meth. Enzymol., 63:437-467 (1979)).

Another assay addresses human JAK3 kinase domain (Homo sapiens (Human), UniProt P52333). The assay is described as follows: biochemical. The settings on record: enzymatic activity, 5 uM ATP; read-out: JAK3 Ki. The assay is classed as biochemical. The procedure:
The activity of the JAK1, JAK2, JAK3 or TYK2 kinase domains was measured in vitro by monitoring phosphorylation of JAK3 derived peptides using the Caliper LabChip technology.
as §2, with “JAK3” for “JAK1 or TYK2”, “specifications.” for “specifications. Ki values were then determined using the Morrison tight binding model (Morrison, J. F., Biochim. Biophys. Acta. 185:269-296 (1969); William, J. W. and Morrison, J. F., Meth. Enzymol., 63:437-467 (1979)).”

In assay [3] the test system is TF-1 cells. The assay is described as follows: EPO-stimulated STAT5 phosphorylation in TF-1 cells (JAK2-dependent signaling, MSD). The conditions noted are these: Homo sapiens, TF-1, 0.5 h, read-out: EPO pSTAT5 TF1 EC50. The format is cell-based. The method, then:
as §1

human JAK1 kinase domain, sequence (P23458 852-1154): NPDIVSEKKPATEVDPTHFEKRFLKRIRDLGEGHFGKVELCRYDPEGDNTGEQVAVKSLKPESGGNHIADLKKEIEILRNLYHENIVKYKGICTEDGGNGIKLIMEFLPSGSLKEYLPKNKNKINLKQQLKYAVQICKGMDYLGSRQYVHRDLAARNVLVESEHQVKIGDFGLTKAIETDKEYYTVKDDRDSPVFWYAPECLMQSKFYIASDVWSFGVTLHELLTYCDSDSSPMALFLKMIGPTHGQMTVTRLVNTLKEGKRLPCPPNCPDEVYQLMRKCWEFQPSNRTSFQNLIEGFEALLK
human JAK3 kinase domain, sequence (P52333 783-1124): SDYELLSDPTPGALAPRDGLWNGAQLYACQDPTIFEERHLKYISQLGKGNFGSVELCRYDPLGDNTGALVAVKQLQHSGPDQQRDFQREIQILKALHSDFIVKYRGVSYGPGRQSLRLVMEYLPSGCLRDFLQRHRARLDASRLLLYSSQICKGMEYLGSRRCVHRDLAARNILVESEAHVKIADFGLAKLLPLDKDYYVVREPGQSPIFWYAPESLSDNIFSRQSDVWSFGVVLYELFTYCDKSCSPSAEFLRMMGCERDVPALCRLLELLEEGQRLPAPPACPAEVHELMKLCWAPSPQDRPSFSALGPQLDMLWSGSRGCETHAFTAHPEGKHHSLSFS

For `Cc1ccc(C)c(-c2nn(C)cc2NC(=O)c2cnn3ccc(N)nc23)c1` [Example 225, 5-amino-N-(3-(2,5-dimethylphenyl)-1-methyl-1H-pyrazol-4-yl)pyrazolo[1,5-a]pyrimidine-3-carboxamide], the figures for the EC50 (in assay [1]; in the assay with TF-1 cells [2]; with NK92 cells) were 12.8 nM, 130 nM and 119 nM, respectively.
`Nc1ccn2ncc(C(=O)Nc3conc3-c3cccc(Cl)c3)c2n1` [Example 250, 5-Amino-pyrazolo[1,5-a]-pyrimidine-3-carboxylic acid [3-(3-chloro-phenyl)-isoxazol-4-yl]-amide]: the Ki on human JAK1 kinase domain was found to be 28.4 nM; at human JAK3 kinase domain, 55.6 nM. In addition, the values for the concentration giving a half-maximal response (EC50) in the assay on TF-1 cells [3], in the assay with TF-1 cells [2] and with NK92 cells were 340 nM, 839 nM and 105 nM, respectively.
